Test results published in a melting point compilation (Tetko et al.; mined from patent text by program, amines drawn as free bases though some values may be those of a salt).

Compound | melting point [°C]
COc1cc(OC)nc(C(=O)NS(=O)(=O)NC(C)C)n1 | 167 to 169
CC(C)(C)OC(=O)n1cccc1-c1ccc2c(c1)C1(CCCC1)C(=O)N2 | 179 to 180
CNCc1cccc(-c2ccc(CC3SC(=O)NC3=O)c(C)c2)c1 (stereo not drawn) | 135
CCCc1nnc(/C=C/c2cn(Cc3ccccc3)nc2OCc2ccc(OCc3nc(-c4ccco4)oc3C)c(OC)c2)o1 | 146 to 147
CCC1(CC)OC(=O)Nc2ccc(-c3cccc([N+](=O)[O-])c3)cc21 | 193 to 194
O=C1C(O)=C(c2ccc(Cl)cc2)C(=O)C(O)=C1/C=C/c1ccccc1 | 258 to 259
CC(C)(C)c1ccc(S(=O)(=O)Nc2ncnc(Cl)c2Oc2ccccc2)cc1 | 143 to 144
O=C(N[C@@H](Cc1ccccc1)C(=O)COC(=O)N1CCC[C@H]1C(=O)O)c1ccccc1 | 55 to 65
CCc1nn(-c2ccc(C(=N)N)cc2)c(=O)n1-c1ccc(CCC(=O)OC(C)C)cc1 | > 250
O=C1CN2Cc3ccccc3N=C2N1 | > 285
CN1CCC(=C2c3ccc(Cl)cc3C(=O)Cc3cccnc32)CC1 | 181 to 183
CS(=O)(=O)c1ccc(C[C@@H](NC(=O)OCc2ccccc2)[C@H](O)C(=O)O)cc1 | 168 to 172
CC1(c2cc(NC(=O)c3ccc(Cl)cn3)ccc2F)N=C(N)COCC1(F)F (stereo not drawn) | 190 to 193
Cc1cc(C)cc(P(c2cc(C)cc(C)c2)c2cccc3c2-c2c(cccc2P(c2cc(C)cc(C)c2)c2cc(C)cc(C)c2)OCCCO3)c1 | 232 to 234
Cc1nnc2n1-c1ccc(C#CCN3C(=O)C(=O)c4ccccc43)cc1C(c1ccccc1Cl)=NC2 | 210 to 212
N#Cc1ccc(S(=O)(=O)N2CCN(C(=O)C3CCN(c4ccncn4)CC3)CC2)cc1 | 180 to 181
CC(C)(C)c1cc(C(=O)c2cccs2)cc(CN2CCCCC2)c1O | 132 to 133
CNC(=O)ON=C1CCOc2ccccc21 | 123 to 126
O=[N+]([O-])c1ccc(CN2CCC(c3cc(-c4ccc(Cl)cc4)[nH]n3)CC2)cc1 | 187 to 190
Cn1ncc2c(c1=O)S(=O)(=O)CCNC2Cc1ccccc1 (stereo not drawn) | 288 to 290
O=c1oc2c(c(O)c1C(c1ccccc1)C1CC1)CCCCC2Cc1ccccc1 (stereo not drawn) | 178 to 182
O=C(NC(=O)c1c(F)cccc1F)Nc1ccc(Cl)cn1 | 226 to 229
O=C(CCC(=O)N1CCC(c2ccc(Cl)cc2)CC1)c1ccc2c(c1)CCNCC2 | 148 to 149
CCc1nc(-c2ccccc2)c(NC(=O)Nc2ccccc2)s1 | 171 to 173
CC(=Nc1ccc(NC(=O)CN)cc1)N(C)C | 142 to 145

Compound | melting point [°C]
CC[C@H]1CN(c2c(F)c(N)c3c(=O)c(C(=O)O)cn(C4CC4)c3c2F)C[C@H]1CNCCC(=O)C(F)(F)F (relative stereo) | 145 to 146
CCc1cc2c(cc1CC)C(=O)CCC2 | 93
OCc1csc(NC2CCCCC2)n1 | 118 to 120
Cn1ncc(C(=O)N2CCC2)c1C(=O)Nc1cc2nc(-c3ccccc3)nn2cc1F | > 250
CCn1c(=O)c2c(nc(/C=C/c3ccc(C)cc3)n2C)n(CC)c1=O | 171 to 172
O=C1Cc2cc(C(=O)CCl)c(Br)cc2N1 | 238 to 239
O=C(N[C@@H](Cc1ccccc1)C(=O)N[C@H](CO)Cc1c[nH]c2ccccc12)OCc1ccccc1 | 154 to 156
O=C1Cc2c(Cl)cccc2Sc2c(F)cccc21 | 128 to 130
NC(CO)C(c1ccccc1)c1ccccc1 (stereo not drawn) | 107 to 108
CC(C)c1ccc2nc(C(F)(F)F)c(C(=O)Nc3nccs3)c(O)c2c1 | 262
O=C(Cl)c1ccncc1 | 160
c1ccc2c(c1)CNc1ccccc1O2 | 74 to 76
Cc1ccc(N2CCN(Cc3n[nH]c4c(Cl)cccc34)CC2)cc1 | 187 to 188
CC(=O)Oc1ccc2ncc3c(c2c1)CCCC3 | 118 to 119
CCCCC(=O)N(Cc1ccc2c(c1)CCc1ccccc1N2CC#N)C(C(=O)O)C(C)C (stereo not drawn) | 82
Cc1ccc(-c2cc[nH]c2)cc1 | 92 to 93
O=C1C(Cc2ccccc2)NC(=S)N1c1nc2ccc(F)cc2s1 (stereo not drawn) | 223 to 224
CCCc1cc(NC(=S)N2CCN(c3cc(OC)cc(OC)c3)CC2)c(OC)nc1C | 143 to 144
COC(=O)C1Oc2ccc(Cl)cc2C(c2ccccc2)(C2CCCCC2)O1 (stereo not drawn) | 142
CN(C=O)CCC12CCCn3c1c(c1ccccc13)CCO2 (stereo not drawn) | 111 to 113
O=C1C=C(c2c[nH]c3ccccc23)C(=O)O1 | 210 to 214
O=C1NCc2ccccc2N1C1CCN(Cc2ccccc2)CC1 | 120
CC1=CC(c2cccc([N+](=O)[O-])c2)C2=C(CCCC2=O)N1 (stereo not drawn) | 183 to 185
O=C(Nc1ccc(-n2nc(C(F)(F)F)cc2C(F)(F)F)cc1)c1sccc1Br | 139 to 140
CCOC(=O)c1ncn2c1CN=C(NCC(OC)OC)c1sccc1-2 | 134

Compound | melting point [°C]
O=C(O)CCc1cc2cc(OC(F)(F)F)ccc2n1S(=O)(=O)c1ccccc1 | 138 to 146
CCCCNC(=O)NS(=O)(=O)c1ccccc1S(=O)(=O)C(C)C | 164 to 166
Cc1ccc(-c2cc(C)ccc2C=CC#Cc2ccc(C(=O)O)cc2)cc1 | 71 to 73
CC(C)C[C@H](NC(=O)OCc1ccccc1)C(=O)NC(C)(C)C(=O)CSCc1ccco1 | 80 to 82
CC1CC(c2c[nH]c(-c3ccc(F)cc3)c2-c2ccncc2)CCN1 (stereo not drawn) | 198 to 205
O=c1nc(NCc2ccc(Cl)cc2)n2c3c1cnn3C(c1cccc(C(F)(F)F)c1)=CC2 | 281 to 282
CCOC(=O)c1[nH]cc2c1NC1=C(C(=O)CCC1)C2c1ccc(Sc2nc3cc(F)c(F)cc3[nH]2)o1 (stereo not drawn) | 160 to 170
CCOC(=O)C1=CCC2(CC1S(=O)(=O)Nc1ccc(F)cc1Cl)OCCO2 (stereo not drawn) | 120 to 122
O=C(O)CCc1nc(-c2ccccc2)nc2ccccc12 | 159
CCOC(=O)C1=C(C)NC(c2nccn2Cc2ccccc2)=NC1c1ccc(F)cc1 (stereo not drawn) | 162 to 164
O=Cc1cn(Cc2ccc(OCc3ccccc3)cc2)nc1-c1ccc(F)cc1 | 97 to 98
O=C1N(Cc2ccc(Cl)s2)c2cccc(Br)c2C12COc1cc3c(cc12)OCO3 (stereo not drawn) | 85 to 87
COC(=O)CCCCCCCNC(=O)C(CO)NS(=O)(=O)c1ccc(Cl)cc1 (racemic) | 88 to 92
O=[N+]([O-])c1c(Cl)cccc1-c1nc2ccccc2n1CC(O)CO (stereo not drawn) | 188 to 189
O=C1CCCc2c1c1cc(Cl)ccc1n2Cc1ccc(F)cc1 | 207 to 208
COc1ccc(-c2cc3cc(F)c(F)cc3[nH]2)cc1NC(=S)NCCO | 191 to 193
COC(=O)c1ccc(Oc2c(C)n(CC(=O)O)c3ccc(Cl)cc23)cc1 | 196 to 197
O=C1NC(c2ccccc2)Oc2ccccc21 (stereo not drawn) | 157 to 160
Cn1nc(-c2ccncc2)n(C)c1=S | 150 to 152
CCOC(=O)c1ccccc1NCc1c(-c2ccccc2)nn(C)c1Cl | 123
CCCC(=O)n1nc(-c2ccncc2)nc1-c1ccncc1 | 116 to 118
Cc1cc(S(=O)(=O)Nc2cc(F)c(Oc3cnc4ccccc4c3)c(Cl)c2)c(Cl)cc1Cl | 187
CCNc1c([N+](=O)[O-])cc(C(C)(C)C)cc1[N+](=O)[O-] | 70 to 73
COc1ccc(Cn2ncnc2CO)cc1 | 95 to 100
COc1cc(CO)c(-n2cccc2)cc1OC | 92 to 93

Compound | melting point [°C]
CCCCc1nc2cccc(C(=O)OC)c2n1Cc1ccc(-c2c(C#N)cnc3ccccc23)cc1 | 103 to 104
CCCc1ccc(CCc2ccc(-c3ccc(F)cc3)cc2)cc1 | 97
COc1cc2c(cc1OC)C(C)N(C(=O)Cc1cccc([N+](=O)[O-])c1)CC2 (stereo not drawn) | 120 to 121
CC(=O)OC1(C)CN(C(=O)Nc2ccc(C(F)(F)F)cc2)N=C1c1ccc(Cl)cc1 (stereo not drawn) | 92 to 96
CN(CCc1ccccn1)C(=O)CCSc1cc(Cl)c(O)c(Cl)c1 | 120 to 123
CO[C@@H](C(=O)N[C@H]1CC[C@@H](OC(=O)C=Cc2ccccc2)CNC1=O)[C@H](O)[C@@H](O)[C@H](O)/C=C/C(C)(C)C | 83 to 85
C(=Cc1cccnc1)c1ccc(C2OCCO2)cc1 | 117 to 119
Cc1cccc(-n2c(-c3cc(-c4ccc(Cl)cc4)c(N4CCOCC4)s3)nc3ccccc3c2=O)c1 | 228 to 230
COc1ccc(CF)c(CN(C(C)=O)c2cc(F)ccc2Oc2ccccc2)c1 | 71 to 72
CC(C)C[C@H](NC(=O)c1ccc2c(c1)Nc1ccccc1S2)C(=O)N[C@H]1CCOC1OC(=O)C(C)(C)C (stereo partly drawn) | 107 to 109
Cc1cccc2c1C=C(C(=O)O)C2C (stereo not drawn) | 190 to 193
O=C(CCCCCNCc1cc2nc(-c3cccc4[nH]ncc34)nc(N3CCOCC3)c2s1)NO | 128 to 130
CNC(=O)/C(=N/OC)c1ccccc1COc1ccc(C(F)(F)F)c(NC)n1 | 66 to 67
CCN(CC)C(=O)[C@@H](C)[C@H]1CC[C@H]2[C@@H]3CCC4=CC(=O)CC[C@]4(C)[C@H]3CC[C@]12C | 198 to 199
CCOC(CNC(=N)NN1CCc2cc(Cl)ccc21)OCC | 163 to 165
CC(C)c1ccccc1NN | 206 to 210
CC(=O)NCc1ccc(CN2CCN(c3ccc(Cl)cn3)CC2)cc1 | 155 to 156
CCC1(O)OC(=O)c2ccc(Oc3ccc(C(F)(F)F)cc3Cl)cc21 (stereo not drawn) | 120 to 122
CCOC(=O)CC1c2cccn2S(=O)(=O)c2ccccc2N1C(=O)c1ccccc1 (stereo not drawn) | 178 to 181
O=c1ccc2nc3ccccc3sc-2c1 | 157 to 159
CCOC(=O)c1cccc(-c2cc3c(Nc4cccc(Cl)c4)ncnc3[nH]2)c1 | > 300
CC(C)NC1=NS(=O)(=O)c2ccc(CC(=O)O)cc2N1 | 262 to 264
COc1cc(C=CC(=O)c2ccc(C3CCCCC3)cc2)cc(OC)c1 | 75.5 to 76.2
